From patent publication EP3679037B1, “NEW 5-AMINOTETRAZOLE DERIVATIVES WITH ANTIBACTERIAL AND ANTIFUNGAL ACTIVITY” (Warszawski Uniwersytet Medyczny, priority 2017, dated 2019)
pIC50: −log10 of the molar value. Converted amounts (≈) assume the structure as drawn. Read-outs that look alike come from different tables or passages of the source.

Key:
[1] = system: non-cancerous, immortalized human keratinocyte (HaCaT) cell line; assay: Cytotoxicity (inhibition of cell proliferation), HaCaT cell line; format: cell-based
Protocol: (§1) The obtained compounds were tested for potential cytotoxicity. They are not cytotoxic to the non-cancerous, immortalized human keratinocyte (HaCaT) cell line and the lung cancer cell line (A549).

[2] = system: lung cancer cell line (A549); assay: Cytotoxicity (inhibition of cell proliferation), A549 cell line; format: cell-based; settings: Homo sapiens
Protocol: as §1

S. aureus DNA Gyrase = S. aureus DNA Gyrase (Staphylococcus aureus, UniProt P0A0K8+P20831); assay: Inhibition of bacterial DNA gyrase; format: biochemical; settings: dose of inhibitor suppressing 50% activity
S. aureus DNA Gyrase, sequence (P20831 whole entry): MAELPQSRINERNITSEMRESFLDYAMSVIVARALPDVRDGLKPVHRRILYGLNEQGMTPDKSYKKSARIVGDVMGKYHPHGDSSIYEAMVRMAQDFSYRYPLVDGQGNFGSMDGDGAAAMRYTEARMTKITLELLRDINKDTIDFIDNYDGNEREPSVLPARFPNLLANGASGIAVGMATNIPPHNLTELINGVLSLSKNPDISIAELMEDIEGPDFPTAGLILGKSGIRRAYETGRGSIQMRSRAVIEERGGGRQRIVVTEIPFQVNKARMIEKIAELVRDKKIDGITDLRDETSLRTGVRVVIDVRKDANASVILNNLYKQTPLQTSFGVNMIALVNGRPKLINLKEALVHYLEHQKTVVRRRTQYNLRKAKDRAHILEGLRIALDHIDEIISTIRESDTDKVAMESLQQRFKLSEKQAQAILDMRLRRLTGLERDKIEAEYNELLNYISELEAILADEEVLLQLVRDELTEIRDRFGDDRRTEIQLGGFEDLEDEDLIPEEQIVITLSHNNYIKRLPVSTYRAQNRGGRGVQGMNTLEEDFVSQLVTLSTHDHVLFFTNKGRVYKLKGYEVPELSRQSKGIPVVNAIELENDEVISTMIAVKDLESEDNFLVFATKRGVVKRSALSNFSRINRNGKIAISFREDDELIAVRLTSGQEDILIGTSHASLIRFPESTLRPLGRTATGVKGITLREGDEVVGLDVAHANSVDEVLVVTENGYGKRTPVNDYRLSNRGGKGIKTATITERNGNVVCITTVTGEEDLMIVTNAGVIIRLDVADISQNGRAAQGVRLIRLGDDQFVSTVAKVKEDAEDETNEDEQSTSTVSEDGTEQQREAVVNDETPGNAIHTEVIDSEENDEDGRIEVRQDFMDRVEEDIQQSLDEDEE
S. aureus DNA Gyrase, sequence (P0A0K8 whole entry): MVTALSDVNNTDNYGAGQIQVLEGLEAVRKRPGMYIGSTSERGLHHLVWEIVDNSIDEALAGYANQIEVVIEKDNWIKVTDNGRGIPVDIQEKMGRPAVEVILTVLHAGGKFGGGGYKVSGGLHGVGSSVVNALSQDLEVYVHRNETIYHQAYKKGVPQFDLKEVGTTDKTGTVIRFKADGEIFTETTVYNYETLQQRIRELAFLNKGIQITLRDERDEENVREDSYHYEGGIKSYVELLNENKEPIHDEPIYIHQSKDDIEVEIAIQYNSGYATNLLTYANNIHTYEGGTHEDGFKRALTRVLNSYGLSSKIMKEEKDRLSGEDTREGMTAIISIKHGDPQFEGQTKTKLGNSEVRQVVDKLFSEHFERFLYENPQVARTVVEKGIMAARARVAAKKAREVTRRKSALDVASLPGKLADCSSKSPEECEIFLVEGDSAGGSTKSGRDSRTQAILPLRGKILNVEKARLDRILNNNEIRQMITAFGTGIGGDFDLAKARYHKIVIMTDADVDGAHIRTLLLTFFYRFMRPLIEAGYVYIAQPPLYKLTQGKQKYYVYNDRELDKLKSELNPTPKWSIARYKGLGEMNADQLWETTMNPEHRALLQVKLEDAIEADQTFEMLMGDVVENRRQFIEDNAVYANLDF
Excerpt: (§2) The mechanism of action was verified for the obtained compounds by inhibiting bacterial topoisomerases (Topoisomerase IV and Gyrase).

[3] = target: S. aureus Topoisomerase IV (Staphylococcus aureus, UniProt P0C1S7+P0C1U9); assay: Inhibition of bacterial topoisomerase IV; format: biochemical; settings: dose of inhibitor suppressing 50% activity
S. aureus Topoisomerase IV, sequence (P0C1S7 whole entry): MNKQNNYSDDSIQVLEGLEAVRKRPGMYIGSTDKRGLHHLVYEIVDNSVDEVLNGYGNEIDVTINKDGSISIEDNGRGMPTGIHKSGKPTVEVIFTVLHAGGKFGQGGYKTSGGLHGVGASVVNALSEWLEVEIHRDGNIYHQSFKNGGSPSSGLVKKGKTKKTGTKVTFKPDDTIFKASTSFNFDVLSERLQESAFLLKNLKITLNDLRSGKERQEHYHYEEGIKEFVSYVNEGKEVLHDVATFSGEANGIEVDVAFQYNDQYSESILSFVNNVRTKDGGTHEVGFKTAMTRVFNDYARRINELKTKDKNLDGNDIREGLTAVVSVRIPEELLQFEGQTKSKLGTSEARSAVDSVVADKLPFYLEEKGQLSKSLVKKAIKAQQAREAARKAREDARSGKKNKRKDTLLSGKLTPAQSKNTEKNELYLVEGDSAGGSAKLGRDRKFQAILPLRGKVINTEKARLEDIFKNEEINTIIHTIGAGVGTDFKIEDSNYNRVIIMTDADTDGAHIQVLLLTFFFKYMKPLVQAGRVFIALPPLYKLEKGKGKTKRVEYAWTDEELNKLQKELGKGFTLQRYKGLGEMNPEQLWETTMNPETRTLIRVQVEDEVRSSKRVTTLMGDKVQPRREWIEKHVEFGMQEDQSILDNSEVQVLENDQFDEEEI
S. aureus Topoisomerase IV, sequence (P0C1U9 whole entry): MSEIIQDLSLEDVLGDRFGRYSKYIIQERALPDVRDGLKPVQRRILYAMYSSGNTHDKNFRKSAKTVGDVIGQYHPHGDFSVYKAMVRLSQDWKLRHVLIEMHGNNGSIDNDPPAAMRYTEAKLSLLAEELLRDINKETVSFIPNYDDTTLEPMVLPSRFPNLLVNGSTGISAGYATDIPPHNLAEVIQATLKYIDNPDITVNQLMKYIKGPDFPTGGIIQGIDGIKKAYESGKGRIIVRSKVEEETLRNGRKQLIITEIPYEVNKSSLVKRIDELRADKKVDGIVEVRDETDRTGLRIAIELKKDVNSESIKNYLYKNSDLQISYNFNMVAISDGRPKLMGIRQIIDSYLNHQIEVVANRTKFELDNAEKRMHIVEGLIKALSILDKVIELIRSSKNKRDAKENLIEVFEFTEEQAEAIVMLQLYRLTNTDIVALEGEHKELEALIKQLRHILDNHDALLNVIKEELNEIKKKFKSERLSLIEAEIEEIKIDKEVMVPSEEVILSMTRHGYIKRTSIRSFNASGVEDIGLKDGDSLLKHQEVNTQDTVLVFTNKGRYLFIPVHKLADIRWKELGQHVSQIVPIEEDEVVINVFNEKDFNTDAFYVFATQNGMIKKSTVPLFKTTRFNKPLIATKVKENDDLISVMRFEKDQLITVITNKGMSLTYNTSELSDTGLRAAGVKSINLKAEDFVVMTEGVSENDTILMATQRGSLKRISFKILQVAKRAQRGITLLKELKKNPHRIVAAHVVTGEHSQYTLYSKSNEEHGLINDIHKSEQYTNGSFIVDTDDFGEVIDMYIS
Excerpt: as §2

[4] = concentration at which cell proliferation is inhibited by 50% in relation to the control, read-out: IC50

Q: How did the pIC50 [1, 4] turn out when Fc1ccc(-n2nnnc2Nc2nccs2)cc1Cl [Compound 2, N-(1-(3-chloro-4-fluorophenyl)-1H-tetrazol-5-yl)thiazol-2-amine] was run?
A: Its pIC50 is 4.22.

Q: And the pIC50 [2, 4]?
A: The pIC50 was 4.22.

Q: Clc1ccc(-n2nnnc2NCc2ccco2)cc1Cl [Compound 11, 1-(3,4-dichlorophenyl)-N-(furan-2-ylmethyl)-1H-tetrazole-5-amine] was tested. Which pIC50 [1, 4] did it give?
A: The pIC50 was 4.08.

Q: And the pIC50 [2, 4]?
A: The pIC50 was 4.10.

Q: And the pIC50 (S. aureus DNA Gyrase)?
A: Its pIC50 is 5.54.

Q: And the pIC50 [3]?
A: Its pIC50 is 5.08.

Q: How did the pIC50 [1] turn out when Brc1ccc(-n2nnnc2Nn2cnnc2)cc1 [Compound 5, 1-(4-bromophenyl)-N-(4H-1,2.4-triazol-4-yl)-1H-tetrazole-5-amine] was run?
A: Its pIC50 is 4.19.

Q: What about the pIC50 [2] of the same compound?
A: The pIC50 was 4.21.

Q: What does the source list for Fc1ccc(-n2nnnc2Nn2cnnc2)cc1 [Compound 9, 1-(4-fluorophenyl)-N-(4H-1,2.4-triazol-4-yl)-1H-tetrazole-5-amine]?
A: pIC50 [1]: 4.08; pIC50 [2]: 4.10

Q: How did the pIC50 [1, 4] turn out when FC(F)(F)c1ccc(-n2nnnc2Nc2nccs2)cc1 [Compound 3, N-(1-(4-(trifluoromethyl)phenyl)-1H-tetrazol-5-yl)thiazole-2-amine] was run?
A: Its pIC50 is 4.10.

Q: And the pIC50 [2, 4]?
A: Its pIC50 is 4.12.

Q: What does the source list for Cc1ccc(-n2nnnc2NCc2ccco2)cc1Cl [Compound 10, 1-(3-chloro-4-methylphenyl)-N-(furan-2-ylmethyl)-1H-tetrazole-5-amine]?
A: pIC50 [1, 4]: 4.10; pIC50 [2, 4]: 4.11; IC50 S. aureus DNA Gyrase (S. aureus DNA Gyrase): 22.8 ± 0.4 µg/mL (≈ 78.7 µM); pIC50 [3]: 4.39

Q: Fc1ccc(-n2nnnc2Nn2cnnc2)cc1Cl [Compound 8, 1-(3-chloro-4-fluorophenyl)-N-(4H-1,2.4-triazol-4-yl)-1H-tetrazole-5-amine] was tested. Which pIC50 [1] did it give?
A: The pIC50 was 4.21.

Q: And the pIC50 [2]?
A: The pIC50 was 4.22.
